Measured values published in ChEMBL document CHEMBL2163290, “Substituted pyrazolones require N2 hydrogen bond donating ability to protect against cytotoxicity from protein aggregation of mutant superoxide dismutase 1” (Bioorg Med Chem Lett, 2012).

Test system: PC-12
Experiment: Neuroprotective activity in rat PC12 cells expressing SOD1 G93A mutant assessed as increase in cell viability after 48 hrs by CalceinAM-based fluorescence assay
Type: functional
Conditions: PC-12, 48 h

O=c1cc(COc2cc(Cl)cc(Cl)c2)[nH]n1-c1ccc(Cl)cc1
EC50: 1730 nM

O=c1cc(COc2cc(Cl)cc(Cl)c2)[nH]n1CCO
EC50: > 32000 nM

O=c1cc(COc2cc(Cl)cc(Cl)c2)[nH]n1-c1ccc([N+](=O)[O-])cc1[N+](=O)[O-]
EC50: > 32000 nM

O=C(c1cccnc1)n1[nH]c(COc2cc(Cl)cc(Cl)c2)cc1=O
EC50: 1320 nM

O=c1cc(COc2cc(Cl)cc(Cl)c2)[nH]n1Cc1cccc(O)c1
EC50: 360 nM

O=c1cc(COc2cc(Cl)cc(Cl)c2)[nH]n1-c1nc(-c2ccccc2)cs1
EC50: 1000 nM

O=C1C=C(COc2cc(Cl)cc(Cl)c2)CN1Cc1ccccc1
EC50: > 32000 nM

O=C(c1cccs1)n1[nH]c(COc2cc(Cl)cc(Cl)c2)cc1=O
EC50: 310 nM

O=C1N[C@H]2[C@H](CS[C@H]2CCCCC(=O)n2[nH]c(COc3cc(Cl)cc(Cl)c3)cc2=O)N1
EC50: 560 nM

O=c1cc(COc2cc(Cl)cc(Cl)c2)[nH][nH]1
EC50: 67 nM

Cc1nnsc1C(=O)n1[nH]c(COc2cc(Cl)cc(Cl)c2)cc1=O
EC50: 1710 nM

O=C(CCCC[C@@H]1SC[C@@H]2NC(=O)N[C@@H]21)NCCOCCOCCOCCOCCC(=O)n1[nH]c(COc2cc(Cl)cc(Cl)c2)cc1=O
EC50: 670 nM

O=c1cc(COc2cc(Cl)cc(Cl)c2)[nH]n1Cc1ccccc1
EC50: 130 nM

Cn1c(COc2cc(Cl)cc(Cl)c2)cc(=O)n1C
EC50: > 32000 nM

Cn1[nH]c(COc2cc(Cl)cc(Cl)c2)cc1=O
EC50: 670 nM

COc1ccc(Cn2[nH]c(COc3cc(Cl)cc(Cl)c3)cc2=O)cc1
EC50: > 32000 nM

O=C(c1ccc(N=C=S)cc1)n1[nH]c(COc2cc(Cl)cc(Cl)c2)cc1=O
EC50: 330 nM

O=c1cc(COc2cc(Cl)cc(Cl)c2)[nH]n1CCCO
EC50: 340 nM

O=Cn1[nH]c(COc2cc(Cl)cc(Cl)c2)cc1=O
EC50: 490 nM

O=c1cc(COc2cc(Cl)cc(Cl)c2)[nH]n1-c1ccccc1
EC50: 1030 nM

CC(=O)n1[nH]c(COc2cc(Cl)cc(Cl)c2)cc1=O
EC50: 270 nM

N#CCC(=O)n1[nH]c(COc2cc(Cl)cc(Cl)c2)cc1=O
EC50: 420 nM

Nc1ccc(C(=O)n2[nH]c(COc3cc(Cl)cc(Cl)c3)cc2=O)cc1
EC50: 930 nM

O=C1CC(COc2cc(Cl)cc(Cl)c2)CN1Cc1ccccc1 (stereo not given)
EC50: > 32000 nM

O=c1cc(COc2cc(Cl)cc(Cl)c2)[nH]n1-c1c(Cl)cc(C(F)(F)F)cc1Cl
EC50: > 32000 nM
